This experiment is described as follows: TC71 Ewing sarcoma cell killing, confirmation, luminescence, cherry-picked samples, retest (AID 720570). The settings on record: TC71 Ewing sarcoma viability, CellTiter-Glo ATP, 72 h.

SMILES strings stand for the structures. Calls of active or inactive are those of the source.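 The calls were made as follows: active = cell-killing curve crosses a set limit at a concentration no more than twice the top valid dose; inconclusive = flat curve with a 30 to 70% loss, or a poor fit; inactive = signal rising instead of falling, and the rest.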

Turning to `N#C[C@H]1N[C@H](CO)[C@H]1c1ccc(C#Cc2ccccc2F)cc1`, where the note is “at 23.5 µM (top of the series)”, the activity change, negative = cytotoxicity was -18.8% (inactive). Take `CCOC(=O)Cc1ccc(NC(=O)c2ccccc2Br)cc1`: the activity change, negative = cytotoxicity (at 26 µM (top of the series)) was 1.04% (inactive). In the case of `C[C@@H]1CN([C@H](C)CO)S(=O)(=O)c2ccc(C#CC3CC3)cc2O[C@@H]1CN(C)Cc1ccccc1F`, the activity change, negative = cytotoxicity (at 26 µM (top of the series)) is -4.35% (inactive). The same measure, in the same setting: the result for `CCOc1ccccc1CNC(=O)c1ccc(Sc2ccc(Cl)cc2)c(NC(C)=O)c1` reads -3.24% (inactive).

In the case of `C=CCOc1ccccc1C(=O)/C=C1/C(=O)Nc2ccccc21`, the activity change, negative = cytotoxicity (at 26 µM (top of the series)) was -30.1% (inactive). On the same count and under the same terms, the result for `Cc1ccc(C(=O)CN2C(=O)c3ccccc3S2(=O)=O)cc1` reads 1.85% (inactive); that for `C=C(C(=O)c1ccccc1)C(C(=C)C(=O)c1ccccc1)c1ccc(OC)cc1`, 10.8% (inactive); that for `CCCCCCN(C(=O)CCCCCN1C(=O)NC(c2ccc(Cl)cc2)C(C(=O)OCc2ccccc2)=C1C)C(C(=O)NCCCC)c1ccc(OCC(=O)OC)c(C(=O)OC)c1` (configuration not stated), 8.62% (inactive). Still for that read-out and setting: the same measure for `COC(=O)c1cccc(NC(=O)NC(=O)c2ccccc2Cl)c1`: 7.25% (inactive); for `CCOc1ccc(N=C2C(=O)Nc3ccc(C)c(Br)c32)cc1`: 8.53% (inactive). As to `COC(=O)C[C@@H]1CC[C@@H]2[C@@H](COc3ccc(NC(=O)Nc4ccccc4C)cc3C(=O)N2C)O1`, the activity change, negative = cytotoxicity (at 23.5 µM (top of the series)) was 14.2% (inactive). As to `COc1cc(C(c2c(C)[nH][nH]c2=O)c2c(C)[nH][nH]c2=O)ccc1OC(C)C`, the activity change, negative = cytotoxicity (at 26 µM (top of the series)) was 3.29% (inactive).

As for `COC(=O)C[C@@H]1CC[C@H]2[C@H](COc3ccc(NC(=O)Nc4ccc(C#N)cc4)cc3C(=O)N2C)O1`, under “at 23.5 µM (top of the series)”, the activity change, negative = cytotoxicity was 4.96% (inactive). On to `CCOC(=O)c1c(-c2ccc(C)cc2)csc1NC(=O)CCN1CCOCC1`, for which, under “at 26 µM (top of the series)”, the activity change, negative = cytotoxicity is 13.3% (inactive). Consider `COc1ccc(CNc2ncc(-c3ccc(F)cc3)n2C)c2ccccc12`, for which the activity change, negative = cytotoxicity (at 26 µM (top of the series)) is -1.83% (inactive). On the same count and under the same terms, the result for `CCc1ccc(/C=C2\SC(=S)N(CCCC(=O)N3CCN(C)CC3)C2=O)cc1` reads -30.1% (inactive); that for `O=C1Nc2ccccc2C1=Nc1ccccc1-c1ccccc1`, 11.4% (inactive); that for `CCOC(=O)C1CCCCN1C(=O)CCc1c(C)nc2cc(-c3ccccc3)nn2c1C` (configuration not stated), 11.3% (inactive). On to `N#C[C@@H]1[C@H](c2ccc(C#Cc3cccc(F)c3)cc2)[C@@H](CO)N1C(=O)C1CCCC1`, for which the activity change, negative = cytotoxicity (at 26 µM (top of the series)) is -12.2% (inactive). On the same count and under the same terms, the result for `CCCn1nnc(NC(=S)NC(=O)C(C)(C)C)n1` reads 17.3% (inactive); that for `C[C@@H]1CN([C@@H](C)CO)S(=O)(=O)c2ccc(C#CCN(C)C)cc2O[C@@H]1CN(C)Cc1ccncc1`, -4.92% (inactive); that for `Nc1ccc(-c2cc3ccccc3oc2=O)cc1`, -3.32% (inactive). As for `CN(C)c1ccc(N=Nc2ccc(C(=O)O)cc2)cc1`, the activity change, negative = cytotoxicity (at 26 µM (top of the series)) was 9.97% (inactive). Take `CC(Oc1cccc(Cl)c1)C(=O)NCCCCc1ccccc1` (configuration not stated): the activity change, negative = cytotoxicity (at 26 µM (top of the series)) is 13.3% (inactive). The same measure, in the same setting: the result for `Cc1ccc(S(=O)(=O)N(C)C[C@H]2Oc3c(cccc3N(C)C)C(=O)N([C@@H](C)CO)C[C@@H]2C)cc1` reads -6.3% (inactive); that for `CC(C)(C)c1ccc(/C=N/Nc2ccc(C(=O)O)cc2)cc1`, 1.96% (inactive).

`c1cncc(-c2ccc([C@@H]3[C@H]4CNC[C@@H]3N4CC3CCOCC3)cc2)c1`: the activity change, negative = cytotoxicity (at 26 µM (top of the series)) is 5.7% (inactive).

As for `COc1ccc(CCC(C)NCC2CCCCC2)cc1` (configuration not stated), the activity change, negative = cytotoxicity (at 26 µM (top of the series)) is 7.46% (inactive). With `COc1ccccc1CNC(=O)C[C@@H]1CC[C@H]2[C@@H](COC[C@H](O)CN2C(=O)Nc2ccc(C(F)(F)F)cc2)O1`, the activity change, negative = cytotoxicity (at 26 µM (top of the series)) was -18.3% (inactive). Same read-out and setting: the result for `Cc1ccsc1C(=O)OCC(=O)c1cc(C)n(C)c1C` reads 15.6% (inactive); that for `Cc1c(Cl)cnc(NC(=O)COC(=O)c2ccc3ncsc3c2)c1Cl`, 5.39% (inactive). The same measure, in the same setting: the same measure for `O=C(CCCN1C(=O)S/C(=C\c2ccccc2)C1=O)NNC(=O)c1ccccc1O`: 5.39% (inactive). Consider `CCOC(=O)Cc1csc(NC(=S)NC(=O)c2ccc(C)cc2)n1`, for which the activity change, negative = cytotoxicity (at 26 µM (top of the series)) is 19.7% (inactive). For the compound `CCNC(=O)[C@@H]1[C@@H](CO)[C@@H]2Cn3c(ccc(C4=CCCCC4)c3=O)[C@H]1N2CC`, for the setting “at 26 µM (top of the series)”, the activity change, negative = cytotoxicity was 8.36% (inactive).

With `COc1ccc(Nc2oc(COc3ccccc3OC)nc2C#N)cc1`, the activity change, negative = cytotoxicity (at 26 µM (top of the series)) is 0.131% (inactive).

As for `c1ccc(-c2ccc([C@H]3[C@H]4CNC[C@@H]3N4Cc3cc(-c4ccccc4)on3)cc2)cc1`, the activity change, negative = cytotoxicity (at 26 µM (top of the series)) is -7.89% (inactive).

For the compound `Cc1ccc(Cc2c(-c3ccco3)nc3c(C)cc(Br)cn23)cc1`, the activity change, negative = cytotoxicity (at 26 µM (top of the series)) is -21.5% (inactive).

On to `Cc1cc(C)cc(OCC(=O)OCC(=O)Nc2cc(S(=O)(=O)N3CCOCC3)ccc2C)c1`, for which, where the note is “at 26 µM (top of the series)”, the activity change, negative = cytotoxicity was 5.46% (inactive). Take `C=C1C(=O)C=C[C@]2(C)C[C@@H]3OC(=O)[C@](C)(O)[C@H]3C[C@@H]12`: the activity change, negative = cytotoxicity (at 26 µM (top of the series)) is -94.2% (inactive). Same read-out and setting: the result for `C[C@@H]1CN([C@@H](C)CO)C(=O)c2cccc(NC(=O)Nc3ccccc3)c2O[C@@H]1CN(C)Cc1ccc(-c2ccccc2)cc1` reads 20.4% (inactive). On the same count and under the same terms, the result for `COc1ccccc1N(/N=C1\Sc2ccccc2C1=O)C(C)=O` reads -15.8% (inactive); that for `CCCCN=C(NNc1ccc(Br)cc1)C(=O)OCC`, 4.46% (inactive); that for `C[C@@H]1CCCCO[C@@H](CN(C)C(=O)Cc2ccccc2)[C@@H](C)CN([C@@H](C)CO)C(=O)c2cc(NS(=O)(=O)c3ccc(F)cc3)ccc2O1`, -0.12% (inactive). Still for that read-out and setting: the result for `COc1cc(OC)cc(-c2cc3nc(C)c(CCC(=O)O)c(C)n3n2)c1` reads 13.7% (inactive); that for `CN(CCO)c1ccc(/C=N/Nc2nncc3ccccc23)cc1`, 0.119% (inactive). On to `Cc1ccc(/C=C2\SC(=S)N(CCC(=O)NNC(=O)c3ccccc3O)C2=O)cc1`, for which, where the note is “at 26 µM (top of the series)”, the activity change, negative = cytotoxicity was -7.03% (inactive). Same read-out and setting: the result for `COc1ccc(C(=O)Nc2cccc(C(=O)N/N=C/c3ccc(OC)cc3OC)c2)cc1` reads 11.2% (inactive); that for `Cc1ccccc1N=CC1=C(O)c2ccccc2C1=O`, 20.2% (inactive); that for `Nc1ccc2c(c1)OC1(CCCC1)O2`, 25.1% (inactive).

Take `CCc1ccc(/C=C2\SC(=S)N(CCCC(=O)NC3=NCCS3)C2=O)cc1`: the activity change, negative = cytotoxicity (at 26 µM (top of the series)) was 13.5% (inactive).

For the compound `O=c1c2ccccc2oc2cc(C#CC3(O)CCCCC3)ccc12`, the activity change, negative = cytotoxicity (at 26 µM (top of the series)) was -17.6% (inactive).

In the case of `COC(=O)C[C@H]1CC[C@H]2[C@@H](COc3ccc(NC(=O)Nc4cccc(Cl)c4)cc3C(=O)N2C)O1`, the activity change, negative = cytotoxicity (at 26 µM (top of the series)) was -10.7% (inactive).

For the compound `CCc1ccc(/C=C2\SC(=S)N(CCCC(=O)Nc3cc(C)on3)C2=O)cc1`, the activity change, negative = cytotoxicity (at 26 µM (top of the series)) is 20.2% (inactive). Regarding `C[C@H]1CN([C@@H](C)CO)C(=O)c2cccc(NC(=O)c3ccc(-c4nccs4)cc3)c2O[C@@H]1CN(C)Cc1ccc(C(=O)Nc2ccccc2N)cc1`, under “at 26 µM (top of the series)”, the activity change, negative = cytotoxicity was -30.9% (inactive).

On to `COc1cc(/C=N/NC(=O)c2csc3c2CCCC3)cc(OC)c1O`, for which, under “at 26 µM (top of the series)”, the activity change, negative = cytotoxicity was -7.47% (inactive). The same measure, in the same setting: the same measure for `CCc1ccc(N2C=C(C(=O)OC)C(c3ccc(OC)cc3)C(C#N)=C2N)cc1` (configuration not stated): -7.67% (inactive). Same read-out and setting: the result for `COc1ccc2nc(-c3ccc(F)cc3)sc2c1` reads -14.1% (inactive). For `COC(=O)C[C@@H]1CC[C@@H]2[C@@H](COc3ccc(NC(=O)Nc4cccc(Cl)c4)cc3C(=O)N2C)O1`, where the note is “at 23.5 µM (top of the series)”, the activity change, negative = cytotoxicity was -4.34% (inactive). Regarding `O=C(Nc1nc(-c2ccc(F)c(F)c2)cs1)c1ccc(OCC2CCCO2)cc1` (configuration not stated), the activity change, negative = cytotoxicity (at 26 µM (top of the series)) is 1.49% (inactive).

Take `O=C(C[C@@H]1CC[C@@H]2[C@H](COC[C@@H](O)CN2S(=O)(=O)c2ccc(F)cc2)O1)NCc1ccc(Cl)c(Cl)c1`: the activity change, negative = cytotoxicity (at 26 µM (top of the series)) was -10.7% (inactive).

For the compound `O=C1C(=O)N(CCS(=O)(=O)c2ccccc2)c2ccc(Cl)cc21`, the activity change, negative = cytotoxicity (at 26 µM (top of the series)) was 20.1% (inactive). As to `O=C(O)c1ccc(N/N=C/c2cc(Br)cs2)cc1`, the activity change, negative = cytotoxicity (at 26 µM (top of the series)) is 25.7% (inactive). Still for that read-out and setting: the same measure for `COc1cc(/C=N/NS(=O)(=O)c2ccc3ccccc3c2)ccc1OCc1ccc(C(=O)O)cc1`: 12.1% (inactive). Still for that read-out and setting: the same measure for `COc1ccc(C=NNc2nc3ccccc3s2)cc1`: -1.49% (inactive); for `O=C1C(=O)N(CCS(=O)(=O)c2ccccc2)c2ccccc21`: 2.35% (inactive). `Cc1c(CC(=O)NCCCC(=O)O)c(=O)oc2cc3c(cc12)CCC(C)(C)O3`: the activity change, negative = cytotoxicity (at 26 µM (top of the series)) was 4.66% (inactive). In the case of `O=C1Nc2cc(C(=O)NCCN3CCCCCC3)ccc2S/C1=C\c1ccccc1`, the activity change, negative = cytotoxicity (at 26 µM (top of the series)) is -2.13% (inactive).

On to `O=C1NC(=O)N(CCc2ccc(F)cc2)C(=O)/C1=C/C=C/c1ccccc1`, for which the activity change, negative = cytotoxicity (at 26 µM (top of the series)) was 11.3% (inactive). As to `Nc1ccc(-c2cc3ccccc3c(=O)o2)cc1`, the activity change, negative = cytotoxicity (at 26 µM (top of the series)) was 14.9% (inactive). The same measure, in the same setting: the result for `Brc1ccc(CSc2nnc(-c3ccco3)o2)cc1` reads 9.85% (inactive). With `COc1ccc(/C=C2\SC(=O)N(CCCC(=O)Nc3ccc(C(=O)O)cc3)C2=O)cc1`, the activity change, negative = cytotoxicity (at 26 µM (top of the series)) is 21.2% (inactive). Still for that read-out and setting: the same measure for `CCCn1c(C)cc(C(=O)CN2C(=O)c3ccccc3S2(=O)=O)c1C`: 5.44% (inactive).
